Measured values published in BindingDB's records for doi:10.1016/s0960-894x(01)00044-0 (Novartis Institute For Medical Sciences, 2001).

What was measured:
Substance-P receptor = Substance-P receptor (Cavia porcellus, UniProt P30547); test: ChEBML_205410
Source text: In vitro binding affinity against Tachykinin receptor 1 in guinea pig ileum using organ bath assay

[1] = In vitro binding affinity against Tachykinin receptor 1 in rabbit whole brain membranes using [3H][Sar9Met(O2)]-SP binding assay

Substance-P receptor, sequence (P30547 whole entry): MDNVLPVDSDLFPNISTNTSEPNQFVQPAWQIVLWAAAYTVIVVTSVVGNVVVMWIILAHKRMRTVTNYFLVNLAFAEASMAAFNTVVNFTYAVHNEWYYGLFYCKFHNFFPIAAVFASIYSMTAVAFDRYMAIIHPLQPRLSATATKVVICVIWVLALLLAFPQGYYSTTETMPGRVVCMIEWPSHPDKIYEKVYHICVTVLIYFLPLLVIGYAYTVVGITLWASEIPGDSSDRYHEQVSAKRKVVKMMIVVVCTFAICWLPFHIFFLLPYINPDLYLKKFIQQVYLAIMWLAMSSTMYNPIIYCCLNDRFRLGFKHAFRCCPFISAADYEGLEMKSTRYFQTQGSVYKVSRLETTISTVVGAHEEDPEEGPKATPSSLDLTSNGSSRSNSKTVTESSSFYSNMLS

IC50 (Substance-P receptor) [µM]	IC50 [1] [µM]	Structure (SMILES)
> 100		CSCCNS(=O)(=O)c1ccc(NNC(=S)N2CCCC2C(=O)NCc2ccccc2)c([N+](=O)[O-])c1 (configuration not stated)
	> 50	CSCCNS(=O)(=O)c1ccc(NNC(=S)N2CCCC2C(=O)NC(c2ccccc2)c2ccccc2)c([N+](=O)[O-])c1 (configuration not stated)
